# Experimental data: patent EP1137632B1, “THIOUREA INHIBITORS OF HERPES VIRUSES” (Wyeth, priority 1998, dated 2000)
# Experiments:
# [1] = tested on: HCMV recombinant mutant virus; experiment: microbe, parasite or virus in culture; assay type: cell-based, human cytomegalovirus; conditions: Human betaherpesvirus 5, read-out: IC50 (ug/ml) HCMV
# Excerpt: Microtiter plate assay. Ninety-six well plate cultures of human foreskin fibroblasts are infected in the presence of inhibitor compound with a HCMV recombinant mutant virus whose genome contains the prokaryotic beta-glucuronidase gene (Jefferson, R. A., S. M. Burgess, and D. Hirsh. 1986. Beta-glucuronidase from Escherichia coli as a gene fusion marker. Proc. Natl. Acad. Sci. USA 83:8447-8451) whose expression is controlled by a viral promoter. An example of such a virus is RV145 (Jones, T. R., V. P. Muzithras, and Y. Gluzman. 1991. Replacement mutagenesis of the human cytomegalovirus genome: US10 and US11 gene products are nonessential. J. Virol. 65:5860-5872). Since it is under the control of a viral promoter, beta-glucuronidase expression is an indirect indicator of growth and replication of HCMV in this assay. At 96 hours post-infection, the infected cell lysates are prepared (using 50mM sodium phosphate [pH7.0] containing 0.1 % Triton X-100 and 0.1% sarkosyl) and assayed for beta-glucuronidase activity using a substrate for the enzyme which when cleaved yields either a product which can be measured colorimetrically in a spectrophotometer or fluorescently in a microfluorimeter. Examples of such substrates are p-nitrophenyl-beta-D-glucuronide and methylumbelliferylglucuronide, respectively. The presence of an antiviral compound is indicated by the reduced expression of the HCMV genome resident beta-glucuronidase gene, compared to the absence of inhibitor. […] Data from this assay generated using varying amounts of inhibitor compound is also used to estimate the IC50 of an inhibitor compound.
# [2] = tested on: HSV-1; experiment: HSV antiviral (ELISA) assay in Vero cells; assay type: cell-based, herpes simplex virus type 1; conditions: Human alphaherpesvirus 1; HSV-1 in Vero cells; read-out: IC50 (ug/ml) HSV
# Method: HSV antiviral (ELISA) assay
# Vero cells (ATCC #CCL-81) are plated on 96-well tissue culture plates at 3.5x10^4 cells per 100µl tissue culture DMEM (Dulbecco's modified Eagle media) supplemented with 2% fetal bovine serum (FBS) in each well. After overnight incubation @ 37°C (in 5% CO2) and 30 minutes prior to infection with HSV-1 (multiplicity of infection equal to 0.006), cells are either untreated, or treated with test compound (multiple concentrations) or reference standard drug control. After approximately 24 hours post-infection incubation @ 37°C (in 5% CO2), cells are fixed for ELISA assay. The primary antibody is murine anti-HSV glycoprotein D monoclonal primary antibody and the secondary antibody is goat anti-mouse IgG linked to β-galactosidase. Thus the extent of viral replication is determined by assessing β-galactosidase activity by quantifying the generation of the 4-methyl umbelliferone fluorescent cleavage product after addition of the methyl umbelliferyl-β-D-galactoside (Sigma #M1633) substrate on a microfluorimeter (365nm for excitation and 450nm for emission). Antiviral activity (IC50) of the test compound is determined by comparing the flourescence obtained in absence of compound to that obtained in the presence of compound.
# [3] = tested on: VZV strain Ellen; experiment: VZV antiviral (ELISA) assay in human foreskin fibroblast cells; assay type: cell-based, varicella-zoster virus; conditions: for inhibition at 10 µg/mL: Human alphaherpesvirus 3, Fibroblast, read-out: % inhibition 10 ug/ml VZV; for IC50: Human alphaherpesvirus 3, VZV strain Ellen in HFF cells, read-out: IC50 (ug/ml) VZV
# Method: VZV antiviral (ELISA) assay
# For the generation of stock VZV to be used in the assay, VZV strain Ellen (ATCC #VR-1367) is used to infect human foreskin fibroblast (HFF) cells at low multiplicity (less than 0.1) and incubated overnight at 37°C in 5% CO2. After the overnight incubation, the mixture of uninfected and VZV-infected HFF infected cells are then harvested and added to each well of 96-well plates (3.5x10^4 cells in 100 µl DMEM supplemented with 2% FBS) which contain test compound or the reference standard drug control (in 100µl DMEM supplemented with 2% FBS per well). These cells are incubated for three days at 37°C in 5% CO2, then fixed for ELISA assay. The primary antibody is murine anti-VZV glycoprotein II monoclonal antibody (Applied Biosystems, Inc. #13-145-100) and the secondary antibody is goat anti-mouse IgG linked to β-galactosidase. Thus the extent of viral replication is determined by assessing β-galactosidase activity by quantifying the generation of the 4-methyl umbelliferone fluorescent cleavage product after addition of the methyl umbelliferyl-β-D-galactoside (Sigma #M1633) substrate on a microfluorimeter (365nm for excitation and 450nm for emission). Antiviral activity (IC50) of the test compound is determined by comparing the flourescence obtained in absence of compound to that obtained in the presence of compound.
Structure (SMILES),IC50 [1] [µg/mL],IC50 [2] [µg/mL],inhibition at 10 µg/mL [3] [%],IC50 [3] [µg/mL]
"COc1cc(OC)c(NC(=S)Nc2ccc(NC(=O)c3ccccc3F)cc2C#N)cc1Cl [Example 381, N-{4-[3-(5-Chloro-2,4-dimethoxy-phenyl)-thioureido]-3-cyano-phenyl}-2-fluoro-benzamide]",> 10,> 10,13,> 10
"COc1cc(OC)c(NC(=S)Nc2ccc(NC(=O)c3ccccc3F)cc2OC)cc1Cl [Example 389, N-{4-[3-(5-Chloro-2,4-dimethoxy-phenyl)-thioureido]-3-methoxy-phenyl}-2-fluoro-benzamide]",1.5,0.04,9,> 10
"COc1cc(C)c(Cl)cc1NC(=S)Nc1ccc(NC(=O)c2ccccc2F)c(C)c1 [Example 394, N-{4-[3-(5-Chloro-2-methoxy-4-methyl-phenyl)-thioureido]-2-methyl-phenyl}-2-fluoro-benzamide]",> 10,0.2,36,> 10
"CC(=O)Nc1ccc(NC(=S)Nc2ccc(NC(=O)c3ccccc3)c(Cl)c2)cc1 [Example 400, N-{4-[3-(4-Acetylamino-phenyl)-thioureido]-2-chloro-phenyl}-benzamide]",> 10,> 10,15,> 10
"O=C(Nc1ccc(NC(=S)Nc2ccc(NC(=O)c3ccccc3F)cc2)cc1Cl)c1ccccc1 [Example 401, N-{4-[({[4-(Benzoylamino)-3-chloro-phenyl]-amino}-thioxomethyl)-amino]-phenyl}-2-fluoro-benzamide]",2.5,> 10,70,> 15
"COc1cc(OC)c(NC(=S)Nc2ccc(NC(=O)c3ccccc3F)c(C(F)(F)F)c2)cc1Cl [Example 402, N-{4-[3-(5-Chloro-2,4-dimethoxy-phenyl)-thioureido]-2-trifluoromethyl-phenyl}-2-fluoro-benzamide]",4,> 10,13,> 10
"CSc1ccc(NC(=S)Nc2ccc(NC(=O)c3ccccc3F)c(C)c2)cc1Cl [Example 408, N-{4-[3-(3-Chloro-4-methylsulfanyl-phenyl)-thioureido]-2-methyl-phenyl}-2-fluoro-benzamide]",6,0.2,56,> 10
"COc1cc(NC(=O)c2ccccc2F)ccc1NC(=S)Nc1cc(Cl)c(C)cc1OC [Example 418, N-{4-[3-(5-Chloro-2-methoxy-4-methyl-phenyl)-thioureido]-3-methoxy-phenyl}-2-fluoro-benzamide]",3,0.05,10,> 10
"COc1cc(NC(=O)c2ccccc2F)ccc1NC(=S)Nc1ccc(C)c(Cl)c1 [Example 419, N-{4-[3-(3-Chloro-4-methyl-phenyl)-thioureido]-3-methoxy-phenyl}-2-fluoro-benzamide]",> 10,0.2,3,> 10
"COc1cc(NC(=O)c2ccccc2F)ccc1NC(=S)Nc1ccc(SC)c(Cl)c1 [Example 420, N-{4-[3-(3-Chloro-4-methylsulfanyl-phenyl)-thioureido]-3-methoxy-phenyl}-2-fluoro-benzamide]",7,0.2,34,> 10
"O=C(Nc1ccc(NC(=S)NNc2cccc(Cl)c2)cc1)c1ccccc1F [Example 529, N-[4-({[2-(3-Chloro-phenyl)-hydrazino]-thioxomethyl}-amino)-phenyl]-2-fluoro-benzamide]",8.5,1,23,9
"Cc1c(C)c(NC(=S)NC(C)c2ccc(F)cc2)c(C)c(C)c1NC(=O)c1ccccc1F (centres unmarked) [Example 1023, 2-Fluoro-N-(4-{3-[1-(4-fluoro-phenyl)-ethyl]-thioureido}-2,3,5,6-tetramethyl-phenyl)-benzamide]",9,> 10,–,10
